Here are results for seven compounds from PMC6274227, “Interactions of Bovine Serum Albumin with Anti-Cancer Compounds Using a ProteOn XPR36 Array Biosensor and Molecular Docking” (Molecules, 2016).

In data set [1] the target is T1, bovine serum albumin (BSA) (Bos taurus, UniProt P02769). As to the kind of experiment: ProteOn XPR36 SPR array biosensor binding to immobilized BSA. The following applies: for binding to the immobilized BSA (sensorgram): SPR, PBS-T buffer pH 7.4, 25 °C; for koff / kon: bovine, pH 7.4. Here is the method: The GLH sensor chip, consisting of glass prisms coated with gold and an alginate-based layer, was an ideal choice for examining protein-small molecule interactions. The chip was initialized with 50% glycerol for several minutes prior to use.
Following initialization, the GLH sensor chip was washed with 0.5% SDS, 50 mM NaOH and 100 mM HCl, respectively, for 1 min each, at a flow rate of 100 µL/min. PBS-T buffer (10 mM sodium phosphate, 150 mM NaCl, and 0.005% Tween 20, pH 7.4) was then injected in three pulses for baseline stabilization.
One of the six channels was activated with a mixture of EDC (40 mM) and sulfo-NHS (10 mM) in the horizontal direction for 3 min, at a flow rate of 30 µL/min. BSA (2 mg/mL) was diluted to 300 nM in 10 mM sodium acetate (pH 4.0) and immobilized on the channel for 5 min, at a flow rate of 30 µL/min. Next, the channel was blocked by injection of 1 M ethanolamine-HCl for 5 min. […] Baseline equilibration was performed by multiple washes with running buffer (PBS-T) across the chip surface for 1 h.
Each compound was tested at six concentrations using a two-fold dilution series. Gradient concentrations of each compound were simultaneously injected over the BSA-immobilized surface at a flow rate of 30 µL/min in the vertical direction, where the association and dissociation times were 80 s and 60 s, respectively. All interaction analyses were performed at 25 °C.
All sensorgrams for protein binding were collected, processed, and analyzed using the ProteOn Manager software. We utilized two types of reference sources, the standard blank buffer reference, and interspot reference, which was the average response before and after each interaction spot to correct for nonspecific binding. The target protein was washed off in the dissociation phase, which caused baseline drift, although real-time injection of a blank reference can completely correct this baseline drift by subtracting artifacts in real time. The dual references were both subtracted from the interaction spot data to correct for any bulk shifts due to baseline drift and nonspecific binding. Finally, the data for each compound collected over the same target protein were globally fit to a Langmuir 1:1 binding model with a global ka and kd, where ka is the association rate constant and kd is the dissociation rate constant for the protein-small molecule binding. The ratio of (kd/ka) indicated the value for the equilibrium dissociation constant (KD).

The target of data set [2] is T1, bovine serum albumin (BSA). Set-up: I (residues 1–183), II (184–376), III (377–583); purchased Sigma-Aldrich; method as in doi:10.1016/j.molstruc.2008.01.013. The note with it: under physiological conditions; cited from earlier work.

T1 sequence (P02769 25-607): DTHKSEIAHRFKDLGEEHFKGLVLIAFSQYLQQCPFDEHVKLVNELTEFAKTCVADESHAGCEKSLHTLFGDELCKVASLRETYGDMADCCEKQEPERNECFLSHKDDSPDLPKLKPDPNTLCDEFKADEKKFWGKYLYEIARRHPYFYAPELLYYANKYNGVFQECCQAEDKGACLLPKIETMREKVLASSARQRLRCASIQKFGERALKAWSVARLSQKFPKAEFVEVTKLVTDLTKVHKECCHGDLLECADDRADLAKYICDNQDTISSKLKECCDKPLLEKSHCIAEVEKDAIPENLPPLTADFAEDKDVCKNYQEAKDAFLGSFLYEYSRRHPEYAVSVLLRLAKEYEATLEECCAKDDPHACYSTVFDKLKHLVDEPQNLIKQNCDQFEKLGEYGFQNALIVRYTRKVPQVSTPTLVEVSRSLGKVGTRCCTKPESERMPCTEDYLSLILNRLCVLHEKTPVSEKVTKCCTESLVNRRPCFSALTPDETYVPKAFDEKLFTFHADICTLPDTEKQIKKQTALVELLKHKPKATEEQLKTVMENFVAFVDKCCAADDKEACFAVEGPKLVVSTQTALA

`C[C@@H]1O[C@@H](O[C@@H]2[C@@H](O)[C@H](OCCc3ccc(O)c(O)c3)O[C@H](CO)[C@H]2OC(=O)/C=C/c2ccc(O)c(O)c2)[C@H](O)[C@H](O)[C@H]1O` [acteoside, Acteoside]: in data set [1], the equilibrium dissociation constant (Kd) came out at 740 ± 360 µM, the “binding to the immobilized BSA (sensorgram)” value (shortened to “binding to the immobilized BSA”) is “able to reversibly bind”, the off-rate constant (koff) turned out to be 0.09 ± 0.02 s⁻¹ and the kon was 149 M⁻¹ s⁻¹.

Regarding `CC[C@]1(O)C[C@H]2CN(CCc3c([nH]c4ccccc34)[C@@](C(=O)OC)(c3cc4c(cc3OC)N(C=O)[C@H]3[C@@](O)(C(=O)OC)[C@H](OC(C)=O)[C@]5(CC)C=CCN6CC[C@]43[C@@H]65)C2)C1` [vincristine, Vincristine, reference compound], in data set [1], binding was characterised by a dissociation constant (Kd) of 2560 ± 430 µM, the “binding to the immobilized BSA” value is listed as “able to reversibly bind”, the koff was determined as 1.96 ± 0.2 s⁻¹ and the kon was found to be 784 M⁻¹ s⁻¹.

On to `COc1cccc2c1C(=O)c1c(O)c3c(c(O)c1C2=O)C[C@@](O)(C(=O)CO)C[C@@H]3O[C@H]1C[C@H](N)[C@H](O)[C@H](C)O1` [doxorubicin, Doxorubicin, reference compound], for which, in data set [1], the “binding to the immobilized BSA” value is recorded as “able to reversibly bind”, the koff turned out to be 0.73 ± 0.03 s⁻¹ and the on-rate constant (kon) was 2 M⁻¹ s⁻¹. In addition, the “difference in affinity for BSA between weakest and strongest binding compound” value in data set [1] (doxorubicin (weakest) versus salvianolic acid B (strongest)) is listed as “greater than 1000 fold”.

On to `OC[C@H]1O[C@@H](OCCc2ccc(O)cc2)[C@H](O)[C@@H](O)[C@@H]1O` [salidroside, Salidroside], for which the “binding to the immobilized BSA” value in data set [1] is “no such binding”. Besides, the “binding to BSA via spectroscopic investigation” value in data set [2] is “could bind to BSA”.

Take Echinacoside: in data set [1], the “binding to the immobilized BSA” value was “able to reversibly bind”.

For the compound `O=C(O)c1cc(O)c(O)c(O)c1` [gallic acid, Gallic acid], the dissociation constant Kd in data set [1] was determined as 510 ± 250 µM.

In the case of `O=C(/C=C/c1ccc(O)c2c1[C@H](C(=O)O[C@H](Cc1ccc(O)c(O)c1)C(=O)O)[C@@H](c1ccc(O)c(O)c1)O2)O[C@H](Cc1ccc(O)c(O)c1)C(=O)O` [salvianolic acid B, Salvianolic acid B], in data set [1], binding was characterised by a dissociation constant (Kd) of 230 ± 70 µM, the “binding to the immobilized BSA” value is on record as “able to reversibly bind”, the off-rate (koff) amounted to 0.59 ± 0.24 s⁻¹ and the kon worked out at 2500 M⁻¹ s⁻¹.

As usually defined, the Kd is the free concentration of one partner at which half of the binding sites on the other are occupied at equilibrium, for simple one-to-one binding. A high value points to a looser complex. What is called koff is the first-order rate constant of dissociation. By kon is commonly meant a measure of how fast the partners come together. Lower therefore signals slower complex formation.
